# In US12090164B2, “Genotype-agnostic rescue of cystic fibrosis with small molecule bicarbonate channels” (The Board of Trustees of the University of Illinois, priority 2017, dated 2024):
# “Also recorded” adds a separate entry of the source.
# Key:
# [1] = tested on: non-CF primary cultured epithelia; experiment: ASL pH in non-CF primary cultured epithelia; assay type: cell-based, human; conditions: AmB 2 μM, 48 h
# Description: Airway epithelial cells were obtained from human trachea and bronchi of CF and non-CF specimens obtained from the Iowa Donor Network, either as post-mortem specimens or from tissue deemed not fit for transplant. Studies were approved by the University of Iowa Institutional Review Board. After pronase enzymatic digestion, cells were seeded onto collagen-coated semi-permeable membranes (0.33-1.12 cm^2, Corning 3470 polyester, 3460 polyester, 3413 polycarbonate) and grown at an air-liquid interface (52). Airway epithelial cell cultures were analyzed after they had differentiated and at least 14 days post-seeding.
# Small diameter NuLi, CuFi, and primary cultured epithelia were used for this experiment (0.33 cm^2). The ratiometric pH indicator SNARF-conjugated dextran (Molecular Probes) was used to measure ASL pH. […] ASL pH was measured 2 hr later (3, 4, 25). SNARF was excited at 488 nm and emission was recorded at 580 nm and 640 nm using a Zeiss LSM 800 microscope at 40× water immersion for cell line cultures and a Zeiss LSM 510 microscope for primary cultures. To generate a standard curve for pH determination, SNARF was dissolved in colorless pH standards and fluorescence ratios were converted to pH. […]
# In all experiments, ASL pH of compound-treated epithelia was measured compared the results to vehicle-treated epithelia. […]
# [2] = tested on: CuFi-4 (G551D/ΔF508) epithelia; experiment: Basolateral to apical H14CO3- transport; assay type: cell-based, human; conditions: AmB 2 μM, ivacaftor/forskolin 10 μM
# Description: (§1) Small diameter NuLi and CuFi cultured epithelia were used for this experiment (0.33 cm^2). ^14C-labeled sodium HCO3^− was obtained as a sterile 35.7 mM aqueous solution pH 9.5 (MP Biomedicals 0117441H). All experiments were run less than 2 months post seeding. Fresh USG media was added to the basolateral side prior to experimentation. The apical membrane was treated with 20 μL of vehicle, AmB, or ivacaftor/forskolin as a suspension in perfluorocarbon-72 (Sigma Aldrich), and the cultured epithelia were incubated for 48 hours, 7 days, 14 days, or 28 days at 37° C. in a 5% C02 atmosphere. After the end of the treatment period, 5 μL of a 1.4 mM H^14CO3^− stock solution in USG media was added to the basolateral media. The cultured epithelia were then incubated at 37° C. for 10 minutes. After 10 minutes, the apical membrane of the cultured epithelia was immediately washed with 200 μL of PBS. The ASL wash and a 200 μL aliquot of the basolateral media were diluted in scintillation cocktail and analyzed via liquid scintillation counting (23).
# [3] = tested on: CuFi-1 (ΔF508/ΔF508) epithelia; experiment: Basolateral to apical H14CO3- transport; assay type: cell-based, human
# Description: as §1
# [4] = tested on: CuFi-1 (ΔF508/ΔF508) epithelia; experiment: Ussing chamber short-circuit current response to CFTR activation; assay type: cell-based, human; conditions: AmB 2 μM, 48 h
# Description: To assess the presence of membrane-expressed CFTR, differentiated cultures of NuLi and CuFi-1 epithelia grown on Corning Costar 0.4 μm 24-well plate Transwell Clear Polyester Membrane inserts were used. NuLi and CuFi-1 epithelia were treated with 20 μL of perfluorocarbon (FC-72, Sigma) vehicle or 2 μM amphotericin B (AmB) sonicated into a suspension in FC-72. After 48 hours of incubation, the epithelia were mounted in a dual-channel Ussing chamber (Warner U2500) using the culture cup insert for Transwell adapter, 6.5 mm (Warner U9924T-06) and bathed on both the apical and basolateral sides with a HCO3^− solution (120 mM NaCl, 25 mM NaHCO3, 5 mM KCl, 2 mM CaC2, 1.2 mM MgC2, 13.75 mM NaH2PO4, pH 7.0) at 37° C. and gassed with compressed air. Dextrose was added to this solution immediately prior to experiments to a final concentration of 5.6 mM. Epithelial sodium channel (ENaC) and calcium-activated chloride channel (CaCC) were inhibited by apical addition of 1 μM amiloride and 1 μM DIDS (4,4′-disothiocyanostilbene-2,2′-disulfonic acid), respectively, to achieve a baseline for permeabilization. 10 μM forskolin/100 μM IBMX (3-isobutyl-1-methylxanthine) added apically was used to activate CFTR, and 1 μM CFTRinh-172 was used to inhibit CFTR. Each successive addition of reagent was allowed approximately 10 minutes to equilibrate before the addition of the next reagent (15).
# [5] = 13C NMR H13CO3- efflux from liposomes; assay type: biochemical; conditions: 1:1,000 AmB:lipid, vs DMSO or water vehicle
# [6] = tested on: CuFi-1 (ΔF508/ΔF508) epithelia; experiment: Basolateral to apical H14CO3- transport; assay type: cell-based, human; conditions: AmB 2 μM basolateral
compound,measurement,setting,value
"C[C@@H]1[C@H](O)[C@@H](C)/C=C/C=C/C=C/C=C/C=C/C=C/C=C/[C@H](O[C@@H]2O[C@H](C)[C@@H](O)[C@H](N)[C@@H]2O)C[C@@H]2O[C@](O)(C[C@@H](O)C[C@@H](O)[C@H](O)CC[C@@H](O)C[C@@H](O)CC(=O)O[C@H]1C)C[C@H](O)[C@H]2C(=O)O [AmB, amphotericin B]",ASL pH of non-CF primary epithelia,[1],had no effect on the pH of non-CF primary cultured epithelia
same,H^14CO3^− transepithelial transport,[2],increase H^14CO3-transepithelial transport; also recorded: effective in both genotypes; also recorded: the same increase in rate of bicarbonate efflux; also recorded: increased ASL pH and H^14CO3^− secretion
same,time for which increase in H^14CO3^− secretion is sustained,[3]; AmB 2 μM left on epithelia,at least 7 days
same,"basolateral to apical H^14CO3^− transport, apical addition","[3]; over 10 minutes, AmB or C35deOAmB 2 μM, ivacaftor/forskolin 10 μM",restored normal bicarbonate transport; also recorded: increased the rate of ^14C bicarbonate to match that observed in NuLi epithelia; also recorded: effective in both genotypes; also recorded: increased both
same,short circuit current response to forskolin/IBMX of AmB-treated epithelia,[4],did not show an increase in short circuit current in response to forskolin/IBMX; also recorded: did not respond to chemical activation of CFTR
same,H^13CO3^− efflux from liposomes,[5],AmB is able to facilitate transmembrane bicarbonate efflux; also recorded: Robust and rapid release; also recorded: caused H^13CO3^− efflux; also recorded: AmB is able to facilitate HCO3^− efflux
same,"basolateral to apical H^14CO3^− transport, basolateral addition of AmB",[6],did not; also recorded: caused no increase ASL ^14C bicarbonate; also recorded: did not raise ASL pH or increase H^14CO3^− secretion
